Test results reported in patent US20170165274A1, “COMPOSITION” (SHIELD TX (UK) LTD., priority 2014, published 2017).
Where two headings read alike, the source gives them in different places.

Legend:
[1] = tested on: grazed skin; experiment: Short term exposure on grazed skin in two volunteers (irritation); settings: 10^−4 M, short term (5 mins) exposure
[2] = tested on: nasal mucosa; experiment: Contact with the nasal mucosa (irritation); settings: contact for 10 minute periods
[3] = tested on: nasal mucosa; settings: in vivo
[4] = tested on: grazed skin; settings: human, in vivo
[5] = Stability of iron hydroxypyrones in liquid as a function of pH; type: physicochemical; settings: acid pH
Text: There is another advantage of a liquid formulation of a ferric tri (hydroxypyrone) in that there is no need to have an acidified preparation for either efficacy or stability. […] This is a significant difference between ferric pyrones in solution and ferrous salts used in medicine.
Unlike the ferrous products a maximum stability of the liquid ferric pyrones and ferrous products containing maltol is achieved in the pH range 5.5-8. With this knowledge the formulations developed require ingredients suited to this constraint and also standardisation of colour and taste for patient acceptability. At higher concentrations of active a suspension formulation may be preferred. Furthermore the excipients must not reduce the excellent bio-availability of iron from iron pyrone formulations.

| Stability behaviour in liquid [5] | SMILES | Irritation of grazed skin [1] | Irritancy to nasal mucosa [2] | Irritancy to nasal mucosa [3] | Irritation of grazed skin [4] |
| --- | --- | --- | --- | --- | --- |
| – | O=S(=O)([O-])[O-].[Fe+2] [FeS04, iron sulphate] | did not induce irritation | neither iron tri-maltol or iron sulphate in contact with the nasal mucosa for 10 minute periods proved to be irritant | – | – |
| disproportionates at acid pH values | Cc1occc(=O)c1[O-].Cc1occc(=O)c1[O-].Cc1occc(=O)c1[O-].[Fe+3] [Fe[Maltol]3, ferric trimaltol] | – | – | neither iron tri-maltol or iron sulphate in contact with the nasal mucosa for 10 minute periods proved to be irritant | did not induce irritation |
